System: conscious spontaneously hypertensive rats (SHR Okamoto)
Test: Radiotelemetric measurement of blood pressure on conscious spontaneously hypertensive rats
Type: in vivo, rat
From the text: A commercially available telemetry system from DATA SCIENCES INTERNATIONAL DSI, USA, is employed for the blood pressure measurements on conscious rats described below.
The system consists of 3 main components: • implantable transmitters (Physiotel® telemetry transmitter) • receivers (Physiotel® receiver) which are linked via a multiplexer (DSI Data Exchange Matrix) to a • data acquisition computer.
The telemetry system makes it possible to continuously record blood pressure, heart rate and body motions of conscious animals in their usual habitat.
The investigations are carried out on adult female spontaneously hypertensive rats (SHR Okamoto) with a body weight of >200 g. SHR/NCrl from the Okamoto Kyoto School of Medicine, 1963 were a cross of male Wistar Kyoto rats with highly elevated blood pressure and female rats having a slightly elevated blood pressure and at F13 handed over to the U.S. National Institutes of Health.
After transmitter implantation, the experimental animals are housed singly in type 3 Makrolon cages. They have free access to standard feed and water.
The day/night rhythm in the experimental laboratory is changed by the room lighting at 6.00 am and at 7.00 pm.
The telemetry transmitters TA11 PA-C40 used are surgically implanted under aseptic conditions in the experimental animals at least 14 days before the first experimental use. The animals instrumented in this way can be employed repeatedly after the wound has healed and the implant has settled.
For the implantation, the fasted animals are anaesthetized with pentobarbital (Nembutal, Sanofi: 50 mg/kg i.p.) and shaved and disinfected over a large area of their abdomens. After the abdominal cavity has been opened along the linea alba, the liquid-filled measuring catheter of the system is inserted into the descending aorta in the cranial direction above the bifurcation and fixed with tissue glue (VetBonD™, 3M). The transmitter housing is fixed intraperitoneally to the abdominal wall muscle, and layered closure of the wound is performed.
An antibiotic (Tardomyocel COMP, Bayer, 1 ml/kg s.c.) is administered postoperatively for prophylaxis of infection.
Unless indicated otherwise, the substances to be investigated are administered orally by gavage in each case to a group of animals (n=6). The test substances are dissolved in suitable solvent mixtures, or suspended in 0.5% strength Tylose, appropriate for an administration volume of 5 ml/kg of body weight.
A solvent-treated group of animals is employed as control.
The telemetry measuring unit present is configured for 24 animals. Each experiment is recorded under an experiment number (Vyear month day).
Each of the instrumented rats living in the system is assigned a separate receiving antenna (1010 Receiver, DSI).
The implanted transmitters can be activated externally by means of an incorporated magnetic switch and are switched to transmission in the run-up to the experiment. The emitted signals can be detected online by a data acquisition system (Dataquest™ A.R.T. for Windows, DSI) and be appropriately processed. The data are stored in each case in a file created for this purpose and bearing the experiment number.
In the standard procedure, the following are measured for 10-second periods in each case: • systolic blood pressure (SBP) • diastolic blood pressure (DBP) • mean arterial pressure (MAP) • heart rate (HR) • activity (ACT).
The acquisition of measured values is repeated under computer control at 5-minute intervals. The source data obtained as absolute value are corrected in the diagram with the currently measured barometric pressure (Ambient Pressure Reference Monitor; APR-1) and stored as individual data. Further technical details are given in the extensive documentation from the manufacturing company (DSI).
Unless indicated otherwise, the test substances are administered at 9.00 am on the day of the experiment. Following the administration, the parameters described above are measured over 24 hours. […]

[1] = 0.3 mg/kg p.o., 0 hours after substance administration
[2] = 0.3 mg/kg p.o., 1 hours after substance administration
[3] = 0.3 mg/kg p.o., 2 hours after substance administration
[4] = 0.3 mg/kg p.o., 3 hours after substance administration
[5] = 0.3 mg/kg p.o., 4 hours after substance administration
[6] = 0.3 mg/kg p.o., 5 hours after substance administration
[7] = 0.3 mg/kg p.o., 6 hours after substance administration
[8] = 0.3 mg/kg p.o., 7 hours after substance administration
[9] = 0.3 mg/kg p.o., 8 hours after substance administration
[10] = 0.3 mg/kg p.o., 9 hours after substance administration
[11] = 0.3 mg/kg p.o., 10 hours after substance administration
[12] = 0.3 mg/kg p.o., 11 hours after substance administration
[13] = 0.3 mg/kg p.o., 12 hours after substance administration
[14] = 0.3 mg/kg p.o., 13 hours after substance administration
[15] = 0.3 mg/kg p.o., 14 hours after substance administration
[16] = 0.3 mg/kg p.o., 15 hours after substance administration
[17] = 0.3 mg/kg p.o., 16 hours after substance administration
[18] = 0.3 mg/kg p.o., 17 hours after substance administration
[19] = 0.3 mg/kg p.o., 18 hours after substance administration
[20] = 0.3 mg/kg p.o., 19 hours after substance administration
[21] = 0.3 mg/kg p.o., 20 hours after substance administration
[22] = 0.3 mg/kg p.o., 21 hours after substance administration
[23] = 0.3 mg/kg p.o., 22 hours after substance administration
[24] = 0.3 mg/kg p.o., 23 hours after substance administration
[25] = 0.3 mg/kg p.o., 24 hours after substance administration

SMILES: COC(=O)Nc1c(N)nc(-c2nn(Cc3ccccc3F)c3ncc(F)cc23)nc1N [Example 1, Methyl {4,6-diamino-2-[5-fluoro-1-(2-fluorobenzyl)-1H-pyrazolo[3,4-b]pyridin-3-yl]pyrimidin-5-yl}carbamate]
- mean blood pressure [1]: 151.0 mm Hg
- mean blood pressure [2]: 148.4 mm Hg
- mean blood pressure [3]: 136.4 mm Hg
- mean blood pressure [4]: 130.6 mm Hg
- mean blood pressure [5]: 129.1 mm Hg
- mean blood pressure [6]: 132.8 mm Hg
- mean blood pressure [7]: 125.6 mm Hg
- mean blood pressure [8]: 131.9 mm Hg
- mean blood pressure [9]: 131.8 mm Hg
- mean blood pressure [10]: 138.5 mm Hg
- mean blood pressure [11]: 138.3 mm Hg
- mean blood pressure [12]: 138.9 mm Hg
- mean blood pressure [13]: 137.7 mm Hg
- mean blood pressure [14]: 142.9 mm Hg
- mean blood pressure [15]: 144.5 mm Hg
- mean blood pressure [16]: 143.8 mm Hg
- mean blood pressure [17]: 146.3 mm Hg
- mean blood pressure [18]: 141.8 mm Hg
- mean blood pressure [19]: 138.4 mm Hg
- mean blood pressure [20]: 149.2 mm Hg
- mean blood pressure [21]: 145.1 mm Hg
- mean blood pressure [22]: 142.1 mm Hg
- mean blood pressure [23]: 141.8 mm Hg
- mean blood pressure [24]: 143.6 mm Hg
- mean blood pressure [25]: 135.1 mm Hg
- mean blood pressure (3.0 mg/kg p.o., 0 hours after substance administration): 149.0 mm Hg
- mean blood pressure (3.0 mg/kg p.o., 1 hours after substance administration): 129.3 mm Hg
- mean blood pressure (3.0 mg/kg p.o., 2 hours after substance administration): 111.1 mm Hg
- mean blood pressure (3.0 mg/kg p.o., 3 hours after substance administration): 106.0 mm Hg
- mean blood pressure (3.0 mg/kg p.o., 4 hours after substance administration): 107.8 mm Hg
- mean blood pressure (3.0 mg/kg p.o., 5 hours after substance administration): 109.3 mm Hg
- mean blood pressure (3.0 mg/kg p.o., 6 hours after substance administration): 106.8 mm Hg
- mean blood pressure (3.0 mg/kg p.o., 7 hours after substance administration): 110.9 mm Hg
- mean blood pressure (3.0 mg/kg p.o., 8 hours after substance administration): 109.8 mm Hg
- mean blood pressure (3.0 mg/kg p.o., 9 hours after substance administration): 114.3 mm Hg
- mean blood pressure (3.0 mg/kg p.o., 10 hours after substance administration): 114.5 mm Hg
- mean blood pressure (3.0 mg/kg p.o., 11 hours after substance administration): 115.6 mm Hg
- mean blood pressure (3.0 mg/kg p.o., 12 hours after substance administration): 118.8 mm Hg
- mean blood pressure (3.0 mg/kg p.o., 13 hours after substance administration): 120.4 mm Hg
- mean blood pressure (3.0 mg/kg p.o., 14 hours after substance administration): 122.8 mm Hg
- mean blood pressure (3.0 mg/kg p.o., 15 hours after substance administration): 125.8 mm Hg
- mean blood pressure (3.0 mg/kg p.o., 16 hours after substance administration): 131.5 mm Hg
- mean blood pressure (3.0 mg/kg p.o., 17 hours after substance administration): 124.7 mm Hg
- mean blood pressure (3.0 mg/kg p.o., 18 hours after substance administration): 129.6 mm Hg
- mean blood pressure (3.0 mg/kg p.o., 19 hours after substance administration): 135.6 mm Hg
- mean blood pressure (3.0 mg/kg p.o., 20 hours after substance administration): 135.2 mm Hg
- mean blood pressure (3.0 mg/kg p.o., 21 hours after substance administration): 129.3 mm Hg
- mean blood pressure (3.0 mg/kg p.o., 22 hours after substance administration): 128.3 mm Hg
- mean blood pressure (3.0 mg/kg p.o., 23 hours after substance administration): 130.2 mm Hg
- mean blood pressure (3.0 mg/kg p.o., 24 hours after substance administration): 130.8 mm Hg

SMILES: COC(=O)N(C)c1c(N)nc(-c2nn(Cc3ccccc3F)c3ncc(F)cc23)nc1N [Example 2]
- mean blood pressure [1]: 161.3 mm Hg
- mean blood pressure [2]: 145.7 mm Hg
- mean blood pressure [3]: 130.5 mm Hg
- mean blood pressure [4]: 121.5 mm Hg
- mean blood pressure [5]: 123.1 mm Hg
- mean blood pressure [6]: 121.6 mm Hg
- mean blood pressure [7]: 123.8 mm Hg
- mean blood pressure [8]: 124.4 mm Hg
- mean blood pressure [9]: 128.7 mm Hg
- mean blood pressure [10]: 133.7 mm Hg
- mean blood pressure [11]: 139.2 mm Hg
- mean blood pressure [12]: 137.9 mm Hg
- mean blood pressure [13]: 143.0 mm Hg
- mean blood pressure [14]: 146.0 mm Hg
- mean blood pressure [15]: 149.2 mm Hg
- mean blood pressure [16]: 152.3 mm Hg
- mean blood pressure [17]: 155.5 mm Hg
- mean blood pressure [18]: 156.3 mm Hg
- mean blood pressure [19]: 157.3 mm Hg
- mean blood pressure [20]: 156.9 mm Hg
- mean blood pressure [21]: 156.3 mm Hg
- mean blood pressure [22]: 149.3 mm Hg
- mean blood pressure [23]: 147.1 mm Hg
- mean blood pressure [24]: 153.1 mm Hg
- mean blood pressure [25]: 152.3 mm Hg

— US11439642B2 (Adverio Pharma GmbH, priority 2010, dated 2022)
